Assay results published in patent publication US20250281474A1, “PHARMACEUTICAL COMPOSITION FOR TREATING COGNITIVE DECLINE OR FOR TREATING OVERWEIGHTNESS OR OBESITY” (University of the Ryukyus, priority 2021, published 2025).

Key:
NMDAR = assay: Ca2+ imaging of hippocampal brain slices, NMDA+glycine application (NMDA reaction), HFD-fed mice; type: cell-based, mouse; conditions: slices of HFD-fed mice given PER 5 mg/kg/day orally, 50 μM NMDA + 10 μM glycine, N=5
CP-AMPAR = assay: Ca2+ imaging of hippocampal brain slices, AMPA+CTZ application, ob/ob mice; type: cell-based, mouse
[1] = tested on: calcium-permeable AMPA receptor; assay: Ca2+ imaging of hippocampal slices of Alzheimer's disease model mice (NL, NLGF); type: cell-based, mouse; conditions: Alzheimer's disease model (NL and NLGF) mice fed CD
HFD-fed mice [2] = assay: Five-trial social memory assay, HFD-fed mice; type: in vivo, mouse; conditions: HFD-fed mice with PER treatment
Procedure: Five-trial social tests were performed as previously described (19). In summary, subject mice with CD, HFD, and HFD with PER treatment were housed individually starting 7 days before the study to establish territory dominance. On the day of the test, a female mouse was presented in the cages of subject male mice, which is a subject (FIG. 2G), and 5 min trials were performed 4 times in succession at 10 min intervals. In the fifth trial, a novel female mouse was presented (FIG. 2G) and the duration of the social investigation was recorded.

HFD-fed mice [3] = assay: MRI volumetric analysis of mouse hippocampus; type: in vivo; conditions: HFD-fed mice n=8 treated with PER; left CA1 and DG, right CA1, CA3 and DG
Text: Anatomical brain images of 8 ex vivo mice with CD, HFD, PER treatment were acquired using a Bruker BioSpec 117/11 11.75 Tesla MRI scanner (Bruker BioSpin GmbH, Ettlingen, Germany). MPRAGE (three-dimensional (3D)-prepared rapid gradient-echo) sequences were acquired as high resolution 100 μm iso-voxel images for voxel-based morphometry (matrix size: 280×220×220; field of view: 28×22×22 mm, repetition time: 2000 ms, echo time: 1.78 ms, flip angle: 12 degrees, inversion time: 800 ms, echo train length: 13, average number of times: 2).
A region of interest was drawn in the acquired data image using a rapid acquisition protocol by relaxation enhancement (RARE) sequence (matrix size: 280×220×220, field of view: 28×22×22 mm; repeat time: 1500 ms; echo time: 25 ms; flip angle: 180°). The MPRAGE image and the RARE image were simultaneously acquired by one single scan.
MRI data acquisition of ex vivo mice was acquired by simultaneously placing the head parts of four mice fixed with PBS into an MRI coil. Brains of four mice were confirmed using raw MRI data. […]
The volume of subfields of the hippocampus (CA1, CA2, CA3, DG, EC) was calculated using the ROI file (31, 33, 51, 52). […]

HFD mice = assay: Golgi staining of hippocampus, HFD mice; type: in vivo, mouse; conditions: HFD mice with PER
Text: Coronal sections of mouse brains from Bregma −0.94 mm to Bregma −4.04 mm (5 mm wide, including the entire hippocampus from dorsal to ventral, medial to lateral) were fixed with 4% paraformaldehyde for 2 days, and then stained with the Golgi Cox staining system (FD Rapid GolgiStain™ Kit, MD 21041, USA). The impregnated tissues were cut into 100 μm sections and counterstained with crystal violet, and the total number of 15 μm spines on the apical dendrites of CA1 and DG and the percentage of morphologic spines (thin, stubby, mushroom) were examined using an Axio Observer Z1 (Carl Zeiss, Germany). Another set of paraformaldehyde-fixed 5 mm wide coronal sections of the brain, including the entire hippocampus, were processed using the passive CLARITY technique (PACT) (62) and examined through Lightsheet Z.1 (Carl Zeiss, Germany) using a 10× clear objective lens, and 3D images of Thy1-YFPH transgenic mice (the Jackson Laboratory, stock number: 003709, strain name: B6.Cg-Tg.(Thy1-YFP)16Jrs/J) (63, 64), HFD-fed mice, and whole hippocampus of the HFD-fed mice with PER treatment. were acquired respectively. Maximum intensity projection images were acquired along the Z dimension, time dimension, and channel dimension to create an output image with the pixel containing the maximum value for all images in the stack at a particular pixel position. […]

[4] = Appearance and body weight of ob/ob mice; type: in vivo, mouse; conditions: ob/ob mice fed perampanel-containing diet 5 mg/kg body weight from 8 to 12 weeks of age
Procedure: ob/ob mice and their littermates with wild-type traits were obtained as the offspring of ob+/− mice. These mice were fed freely and some of the ob/ob mice were fed perampanel-containing diet at 5 mg/kg body weight from 8 to 12 weeks of age. The appearance and body weight of these mice were compared at 12 weeks of age.

Structure (SMILES): N#Cc1ccccc1-c1cc(-c2ccccn2)cn(-c2ccccc2)c1=O [PER, 3-(2-cyanophenyl)-5-(2-pyridyl)-1-phenyl-1,2-dihydropyridine-2-one]
- NMDA reaction CA1 (maximum value of NF525) (NMDAR; CA1): 1.20 ± 0.08 (N = 5)
- NMDA reaction CA2 (maximum value of NF525) (NMDAR; CA2): 1.20 ± 0.09 (N = 5)
- NMDA reaction CA3 (maximum value of NF525) (NMDAR; CA3): 1.12 ± 0.04 (N = 5)
- NMDA reaction DG (maximum value of NF525) (NMDAR; DG): 1.17 ± 0.04 (N = 5)
- NMDA reaction EC (maximum value of NF525) (NMDAR; EC): 1.16 ± 0.06 (N = 5)
- inhibitory effect on CP-AMPAR in EC, CA1, CA2, CA3, DG (CP-AMPAR; ob/ob mice slices, 100 μM, p<0.05 (FIG. 10-1A)): significant inhibitory effect
- Ca2+ permeability via CP-AMPAR in all hippocampal subregions (CP-AMPAR; ob/ob mice, PER administration, p<0.05): significant inactivation
- inhibition of NMDAR by the calcium-permeable AMPA receptor [1]: can be eliminated
- social memory (five-trial social interaction test) (HFD-fed mice [2]): restored social memory disturbance
- hippocampal volume (printed brain weight) by volumetric analysis (HFD-fed mice [3]): significantly restored
- spine maturity in DG (HFD mice): immature spines became mature
- overweight / appearance at 12 weeks of age [4]: overweight was prevented
